Laboratory results published in ChEMBL document CHEMBL3414520, “Synthesis, analgesic, anti-inflammatory and anti-ulcerogenic activities of certain novel Schiff's bases as fenamate isosteres” (Bioorg Med Chem Lett, 2015).

How the values were obtained:
Rattus norvegicus [1] = species: Rattus norvegicus; test: animal or person; conditions: Wistar, po, read-out: INH
physchem = conditions: n-octanol/water
Description: n-Octanol-water partition coefficient, log P of the compound

Rattus norvegicus [2] = species: Rattus norvegicus; test: animal or person; conditions: Wistar, po, read-out: INH; remark: listed apart in the source
Mus musculus = species: Mus musculus; test: animal or person; conditions: Swiss, po, 3 h, read-out: INH
Rattus norvegicus [3] = species: Rattus norvegicus; conditions: in vivo, po, 10 mg/kg, 17 h

Compound | inhibition in vivo at 10 mg/kg (Rattus norvegicus [1]) | logP (physchem) | inhibition in vivo at 10 mg/kg (Rattus norvegicus [2]) | inhibition in vivo at 10 mg/kg (Mus musculus) | UI (Rattus norvegicus [3])
Cc1ccc(C(=O)Nc2ccccc2C(=O)N/N=C/c2ccc(Cl)cc2Cl)cc1 | 1.06% | 6.12 | 0.35% |  | 
COc1ccc(/C=N/NC(=O)c2ccccc2NC(=O)c2ccc(C)cc2)cc1 | 22.6% | 4.66 | 19.3% |  | 
COc1cc(/C=N/NC(=O)c2ccccc2NC(=O)c2ccc(C)cc2)ccc1O | 23.3% | 4.1 | 19.5% |  | 
COc1cc(OC)c(/C=N/NC(=O)c2ccccc2NC(=O)c2ccc(C)cc2)c(OC)c1 | 14.5% | 4.87 | 13.1% |  | 
COc1cc(/C=N/NC(=O)c2ccccc2NC(=O)c2ccc(C)cc2)cc(OC)c1OC | 64.3% | 4.63 | 62.8% | 34.2% | 1.583
COc1cc(OC)c(OC)cc1/C=N/NC(=O)c1ccccc1NC(=O)c1ccc(C)cc1 | 62.2% | 4.23 | 62.4% | 46.2% | 1.75
Cc1ccc(C(=O)Nc2ccccc2C(=O)N/N=C/c2ccc(O)c(O)c2)cc1 | 55.1% | 4.02 | 55.3% | 77.8% | 1.417
Cc1ccc(C(=O)Nc2ccccc2C(=O)N/N=C/c2ccccc2)cc1 | 15.9% | 4.61 | 15.2% |  | 
Cc1ccc(C(=O)Nc2ccccc2C(=O)N/N=C/c2ccc(O)cc2)cc1 | 23.3% | 4.14 | 19.5% |  | 
Cc1ccc(C(=O)Nc2ccccc2C(=O)N/N=C/c2ccc(N(C)C)cc2)cc1 | 22.3% | 4.41 | 22.3% |  | 
